How the values were obtained:
human TLR2 (hTLR2) = molecular target: T1, human TLR2 (hTLR2) (Homo sapiens, UniProt O60603); experiment: HEK-BLUE-hTLR2 cell assay (NF-kB induced SEAP, read at 620 nm); type: cell-based; conditions: HEK-BLUE-hTLR2 cells, 16 hr
T1 construct: host or cells: HEK293 (HEK-BLUE-hTLR2)
Experimental: The potency of the compounds as activators of human TLR-2s is tested in an in vitro assay in HEK-BLUE-hTLR2 cells.
HEK-BLUE-hTLR2 cells are designed for studying the stimulation of human TLR2 (hTLR2) by monitoring the activation of NF-kB. HEK-BLUE-hTLR2 cells are obtained by co-transfection of the hTLR2 and SEAP (secreted embryonic alkaline phosphatase) reporter genes into HEK293 cells. Stimulation with a TLR2 ligand activates NF-kB which induces the production of SEAP.
HEK-BLUE-hTLR2 cells were purchased from InvivoGen (San Diego, CA, USA). Cells were grown in DMEM supplemented with 10% FCS, 100 U/ml penicillin, 100 ug/ml streptomycin and 2 mM L-glutamine, 100 μg/mL Normocin in the presence of selection antibiotic purchased from InvivoGen and passaged when 70% confluence was reached per manufacturer's recommendation. […]

[1] = Stability II: 9 day stability under accelerated conditions in EDTA/saline pH 5 by HPLC; type: physicochemical; conditions: 40° C./75% RH, 9 days
Experimental: Stability was measured using reversed phase HPLC with a UV detector analytical wavelength of 205 nm. Peak areas of each compound at the 9 day time point were compared with areas at time zero. Compound stability at day 9 was calculated as a percentage of the time zero peak area data. Compound stability was further assessed by comparison with a reference sample of the same compound. […] Thawed samples were sonicated and measured by HPLC.

T1 sequence (O60603 21-784): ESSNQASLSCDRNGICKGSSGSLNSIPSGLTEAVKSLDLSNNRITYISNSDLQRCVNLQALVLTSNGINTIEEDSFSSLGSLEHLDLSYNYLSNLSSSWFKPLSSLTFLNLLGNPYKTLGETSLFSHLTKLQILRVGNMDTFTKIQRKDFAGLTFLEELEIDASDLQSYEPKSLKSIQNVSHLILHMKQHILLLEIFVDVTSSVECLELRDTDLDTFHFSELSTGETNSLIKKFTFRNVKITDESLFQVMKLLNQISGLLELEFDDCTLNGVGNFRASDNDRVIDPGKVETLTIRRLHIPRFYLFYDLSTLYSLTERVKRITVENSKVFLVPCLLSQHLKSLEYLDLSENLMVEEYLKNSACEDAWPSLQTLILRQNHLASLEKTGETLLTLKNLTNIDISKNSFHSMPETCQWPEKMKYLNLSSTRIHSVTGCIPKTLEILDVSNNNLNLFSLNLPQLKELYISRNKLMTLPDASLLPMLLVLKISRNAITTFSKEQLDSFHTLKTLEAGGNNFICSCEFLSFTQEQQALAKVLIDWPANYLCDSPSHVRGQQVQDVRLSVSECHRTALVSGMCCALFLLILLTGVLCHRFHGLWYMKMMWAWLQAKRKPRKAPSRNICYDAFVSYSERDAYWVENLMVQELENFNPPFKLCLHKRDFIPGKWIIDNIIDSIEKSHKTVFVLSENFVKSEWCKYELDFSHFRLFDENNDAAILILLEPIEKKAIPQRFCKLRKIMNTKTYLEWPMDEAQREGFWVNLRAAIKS
T1 sequence (Q9Y2C9 32-796 partner): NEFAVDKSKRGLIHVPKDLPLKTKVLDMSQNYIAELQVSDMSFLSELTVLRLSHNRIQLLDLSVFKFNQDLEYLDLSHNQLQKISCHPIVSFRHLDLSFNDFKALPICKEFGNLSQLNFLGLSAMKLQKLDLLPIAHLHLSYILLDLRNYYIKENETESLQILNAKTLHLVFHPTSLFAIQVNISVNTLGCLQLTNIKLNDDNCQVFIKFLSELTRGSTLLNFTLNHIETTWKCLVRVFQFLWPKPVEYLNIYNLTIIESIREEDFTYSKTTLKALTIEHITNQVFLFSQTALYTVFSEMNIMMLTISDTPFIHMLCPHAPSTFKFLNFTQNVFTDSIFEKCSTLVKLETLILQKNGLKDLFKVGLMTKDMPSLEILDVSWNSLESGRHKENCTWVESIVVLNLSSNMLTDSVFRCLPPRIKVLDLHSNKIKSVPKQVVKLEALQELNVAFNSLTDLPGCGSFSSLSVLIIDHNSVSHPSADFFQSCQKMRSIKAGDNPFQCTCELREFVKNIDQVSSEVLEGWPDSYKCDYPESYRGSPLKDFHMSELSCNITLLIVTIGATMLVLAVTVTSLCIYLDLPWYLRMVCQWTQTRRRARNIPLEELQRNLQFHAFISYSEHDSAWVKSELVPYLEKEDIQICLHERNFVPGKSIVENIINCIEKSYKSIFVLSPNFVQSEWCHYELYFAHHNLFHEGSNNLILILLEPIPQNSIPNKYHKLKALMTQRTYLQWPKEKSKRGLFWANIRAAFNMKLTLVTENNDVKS

For `CCCCCCCCCCCCCCC(C)C(=O)OCC[C@H](CSC[C@H](N)C(=O)N[C@@H](CO)C(=O)NCCOCCOCCOCCOCCOCCOCCOCCOCCOCCOCCOCCOCCOCCOCCOCCOCCOCCOCCOCCOCCOCCOCCOCCOCCOCCOCCOCCOCCC(=O)NCC(N)=O)OC(=O)C(C)CCCCCCCCCCCCCC` (stereo partly drawn) [Compound 36], the “TLR2 activity (HEK-BLUE-hTLR2 assay, FIG. 4)” value (human TLR2 (hTLR2)) was “significant activity at TLR2”, the “stability over the 9 day test period” value ([1]; pH 5 EDTA/saline) was “substantial stability” and the “stability under the accelerated conditions relative to comparator compound” value ([1]; versus compound (8) of WO2019/119067) was “superior stability”.

From patent publication US12709596B2, “Molecules” (ENA Respiratory Pty Ltd, priority 2019, dated 2026)
